Measured values: publication PMC5736782, “The Differential Absorption of a Series of P-Glycoprotein Substrates in Isolated Perfused Lungs from Mdr1a/1b Genetic Knockout Mice can be Attributed to Distinct Physico-Chemical Properties: an Insight into Predicting Transporter-Mediated, Pulmonary Specific Disposition” (Pharmaceutical Research, 2017)
Read-outs that look alike come from different tables or passages of the source.

How the values were obtained:
[1] = tested on: Caco-2 cell model; set-up: method as in PMID 12761811; settings: cited from earlier work
[2] = set-up: method as in PMID 12761811; settings: cited from earlier work
[3] = molecular target: mouse Mdr1a (Mus musculus, UniProt P21447); experiment: Gentest ABC transporter membrane ATPase assay; settings: 0–300 μM, 30 min, 37°C
Description: (§1) The Gentest ATPase assay (Corning, Germany) was used to investigate the binding kinetics of the panel of P-gp substrates against membranes constituted to display human MDR1, mouse Mdr1a, mouse Mdr1b and mouse Bcrp. The assays measure the accumulation of inorganic phosphate (absorbance at 800 nm) produced in the breakdown of ATP to ADP. […] The assays were used in accordance with the manufacturer’s protocol to calculate (GraphPad Prism) the Michaelis-Menten parameters Km and VMAX. For the assay test compounds were serially diluted to produce an assay concentration range of 0–300 μM with the kinetics of ATP turnover examined over 30 min at 37°C.

[4] = Immobilised artificial membrane (IAM) chromatography; format: physicochemical; settings: extrapolated to 100% water; mean of four experiments
Description: IAM chromatography provided an experimental measure of substrate membrane affinity and phospholipid interaction. The IAM column (Regis Technologies Inc., Hichrom, Reading, UK; IAM.PC.DD2 10 cm x 4.6 mm ID column) was run under isocratic eluting conditions with the retention of all compounds determined under three mobile phase conditions: 10%, 20% and 30% acetonitrile in water, and from which the theoretical retention time in 100% water was calculated by linear regression. LogK^IAM values were calculated according to Eq. 2:2 LogK^IAM=LogTr−T0/T0
where Tr and T0 are respectively the retention times of the substrate in 100% water and of the unretained compound, i.e. eluting within the solvent front of 75 s in all experiments.

[5] = molecular target: mouse Mdr1b (Mus musculus, UniProt P06795); experiment: Gentest ABC transporter membrane ATPase assay; settings: 0–300 μM, 30 min, 37°C
[6] = molecular target: T1, mouse Bcrp (Mus musculus, UniProt Q7TMS5); experiment: Gentest ABC transporter membrane ATPase assay; format: biochemical
T1 construct: purchased Corning (Gentest), Germany
T1 sequence (Q7TMS5 1-657): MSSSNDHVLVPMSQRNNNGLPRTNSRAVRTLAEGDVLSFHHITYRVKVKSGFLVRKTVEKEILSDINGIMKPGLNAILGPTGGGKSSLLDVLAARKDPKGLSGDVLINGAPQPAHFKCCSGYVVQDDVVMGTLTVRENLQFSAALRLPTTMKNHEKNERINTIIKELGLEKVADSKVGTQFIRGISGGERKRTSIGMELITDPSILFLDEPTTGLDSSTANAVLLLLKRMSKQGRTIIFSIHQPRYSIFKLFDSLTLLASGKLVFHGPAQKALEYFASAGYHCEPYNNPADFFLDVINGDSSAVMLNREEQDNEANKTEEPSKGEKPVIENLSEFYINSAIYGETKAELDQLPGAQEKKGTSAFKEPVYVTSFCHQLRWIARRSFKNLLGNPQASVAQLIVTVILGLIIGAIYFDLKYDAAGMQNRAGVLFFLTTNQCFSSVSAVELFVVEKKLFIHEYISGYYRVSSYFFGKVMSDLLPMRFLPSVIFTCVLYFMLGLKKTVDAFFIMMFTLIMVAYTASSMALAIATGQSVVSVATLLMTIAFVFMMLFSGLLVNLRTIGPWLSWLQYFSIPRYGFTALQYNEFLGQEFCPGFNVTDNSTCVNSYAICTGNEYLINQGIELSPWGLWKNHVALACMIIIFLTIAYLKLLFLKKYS
Description: as §1

[7] = tested on: P-gp (Mdr1a/1b); experiment: Pilot in-vivo intra-nasal instillation, lung clearance
Description: Separate mice were sacrificed (n=3) at each time-point post-instillation (5 min, 1 hr, 3 hr, 5 hr, 7 hr and 12 hr). Lung tissue was homogenised and subjected to solute extraction approaches priod to LC-MS/MS quantitation.

[8] = tested on: P-glycoprotein (Mdr1a/Mdr1b) in isolated perfused mouse lung; experiment: Isolated perfused mouse lung (IPML) airway-to-perfusate absorption, Mdr1a/1b (+/+) vs (−/−)
Description: The atria and the lower half of the heart were cut to allow the free flow of perfusate. The lungs were removed and suspended vertically in a custom water-jacketed glass thorax (Radleys, Essex, UK) maintained at 37°C.
Following dosing of compound into the IPML airways serial samples (250 μL) were collected for bioanalysis from the 10 mL recirculating perfusate reservoir. Each sample collected from the reservoir was replaced with an equal volume of fresh warmed, oxygenated perfusate. Upon termination of the experiment the dose solutions, apparatus washings and perfusate samples were collected for mass balance calculations enabling determination of the actual total dose delivered to the lungs.
Radioactive compounds were directly analysed by liquid scintillation counting. Volumes of 50 μL perfusate samples were mixed with 3 mL of Scintisafe 3 Liquid Scintillation Fluid (Fisher, UK) and transferred to vials for scintillation counting using a TriCarb 2900TR (Packard Bioscience, USA).
After accounting for the mass of compound removed at each sample point, plots of the cumulative ‘%deposited dose absorbed’ versus ‘time’ were generated and subject to nonlinear regression analysis according to a first-order absorption one-compartment accumulating model (Eq. 1) to generate estimates for the extent (F) and rate (Ka) of absorption from the IPML airways to the recirculating perfusate.
The data was also subject to standard non-compartmental analysis, specifically Area Under Curve (AUC0–30 min) of ‘%deposited dose absorbed’ versus ‘time’ (units: %Dose.min) and reflecting for the exclusively accumulating perfusate ‘compartment’ the exposure arising from the IPML absorption process alone.

[9] = tested on: P-gp; set-up: method as in PMID 23670704; settings: IPRL and IPML models; cited from earlier work
[10] = tested on: P-gp; settings: IPRL; cited from earlier work
[11] = molecular target: human MDR1 (Homo sapiens, UniProt P08183); experiment: Gentest ABC transporter membrane ATPase assay; settings: ATPase, 0–300 μM, 30 min, 37°C
Description: as §1

[12] = Multi-lamellar liposome vesicle (MLV) partitioning; format: physicochemical; settings: (C0−CS)/C0, 1 μg/mL, 4 h, 37°C, PBS pH 7.4
Description: MLVs were formed as previously described ([20]). Briefly, solutions of 8 mg phosphatidylcholine and 2 mg phosphatidylglycerol in 10 mL chloroform were completely dried to a lipid film (rotation under vacuum).
These preparations were then incubated at 37°C for 4 h under shaking conditions to allow equilibration of compound between the lipid and aqueous fractions. The MLVs were then pelleted and 100 μL of supernatant removed for analysis by radiometric or LC-MS/MS methods as described above. Partitioning into the MLVs was determined according to Eq. 3:3 MLVpartitioning=C0−CS/C0
where C0 is the initial compound concentration (1 μg/mL) and CS is the compound concentration present in the aqueous supernatant at the end of 4 h incubation.

[13] = tested on: P-gp (Mdr1a/1b) in mouse intestinal segments; experiment: Ussing chamber intestinal permeability, ileal segments Mdr1a/1b (+/+) vs (−/−); settings: for Mdr1a/1b (−/−) Permeability coefficient: P-gp knockout intestinal segments; for Mdr1a/1b (−/−) Permeability coefficient / Mdr1a/1b (+/+) Permeability coefficient: mucosal to serosal, 50 μM, 180 min; for Mdr1a/1b (+/+) Permeability coefficient: wild-type intestinal segments
Description: (§2) The bathing fluid for both mucosal and serosal surfaces (3 mL volume in each chamber) comprised oxygenated Krebs-Henseleit buffer maintained at 37°C (heating block) under stirred conditions (gas flow manifold). […] Any intestinal segments presenting an initial TEER of lower than 80 Ω.cm^2 were discarded prior to the experiment, likewise any segments whose TEER decreased by more than 10% over the course of the experiment were excluded.
(§3) Thereafter permeability coefficients were determined according to Eq. 4:4 ρ=dM/dt/A^∗C0

[14] = set-up: method as in PMID 4654354; settings: cited from earlier work
[15] = tested on: P-gp (Mdr1a/1b) in mouse intestinal segments
Description: as §2, §3

[16] = ATPase, 0 indicates no enzyme turnover
[17] = knockout IPML, within 30 minutes
[18] = wild-type IPML, within 30 minutes

Chain of human MDR1 (P08183 whole entry): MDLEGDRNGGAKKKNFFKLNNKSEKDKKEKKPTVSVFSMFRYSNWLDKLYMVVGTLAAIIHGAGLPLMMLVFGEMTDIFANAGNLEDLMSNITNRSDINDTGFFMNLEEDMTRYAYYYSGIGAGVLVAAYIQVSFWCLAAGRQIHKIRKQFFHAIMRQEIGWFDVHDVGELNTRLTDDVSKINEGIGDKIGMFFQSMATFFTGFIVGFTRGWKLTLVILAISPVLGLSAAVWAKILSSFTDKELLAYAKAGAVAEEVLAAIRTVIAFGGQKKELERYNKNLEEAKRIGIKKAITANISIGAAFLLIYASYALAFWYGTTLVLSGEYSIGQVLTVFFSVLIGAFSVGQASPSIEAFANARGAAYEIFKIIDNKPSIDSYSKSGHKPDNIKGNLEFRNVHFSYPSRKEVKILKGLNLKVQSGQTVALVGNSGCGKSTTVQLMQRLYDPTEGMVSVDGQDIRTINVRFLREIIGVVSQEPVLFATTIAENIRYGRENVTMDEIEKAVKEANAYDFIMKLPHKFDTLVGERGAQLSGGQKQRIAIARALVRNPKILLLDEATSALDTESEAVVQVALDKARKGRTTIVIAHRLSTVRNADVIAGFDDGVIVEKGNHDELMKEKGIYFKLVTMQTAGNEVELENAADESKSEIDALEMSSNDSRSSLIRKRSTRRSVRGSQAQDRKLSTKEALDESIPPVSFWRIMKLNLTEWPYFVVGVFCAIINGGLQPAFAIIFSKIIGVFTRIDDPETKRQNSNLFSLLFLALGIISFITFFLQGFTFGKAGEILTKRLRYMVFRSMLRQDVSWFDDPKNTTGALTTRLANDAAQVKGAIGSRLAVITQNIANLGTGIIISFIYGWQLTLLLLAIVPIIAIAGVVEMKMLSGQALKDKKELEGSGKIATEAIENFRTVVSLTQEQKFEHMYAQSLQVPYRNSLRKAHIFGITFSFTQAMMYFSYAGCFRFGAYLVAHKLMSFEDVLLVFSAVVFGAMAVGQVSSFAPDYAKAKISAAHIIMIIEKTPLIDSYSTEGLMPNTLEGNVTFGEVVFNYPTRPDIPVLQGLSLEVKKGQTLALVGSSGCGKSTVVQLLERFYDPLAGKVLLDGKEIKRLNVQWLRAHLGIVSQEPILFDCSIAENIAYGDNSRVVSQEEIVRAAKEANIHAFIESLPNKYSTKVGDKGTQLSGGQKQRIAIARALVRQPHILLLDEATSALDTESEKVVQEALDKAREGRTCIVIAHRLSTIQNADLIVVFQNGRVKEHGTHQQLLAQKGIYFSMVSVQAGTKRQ
Chain of mouse Mdr1a (P21447 whole entry): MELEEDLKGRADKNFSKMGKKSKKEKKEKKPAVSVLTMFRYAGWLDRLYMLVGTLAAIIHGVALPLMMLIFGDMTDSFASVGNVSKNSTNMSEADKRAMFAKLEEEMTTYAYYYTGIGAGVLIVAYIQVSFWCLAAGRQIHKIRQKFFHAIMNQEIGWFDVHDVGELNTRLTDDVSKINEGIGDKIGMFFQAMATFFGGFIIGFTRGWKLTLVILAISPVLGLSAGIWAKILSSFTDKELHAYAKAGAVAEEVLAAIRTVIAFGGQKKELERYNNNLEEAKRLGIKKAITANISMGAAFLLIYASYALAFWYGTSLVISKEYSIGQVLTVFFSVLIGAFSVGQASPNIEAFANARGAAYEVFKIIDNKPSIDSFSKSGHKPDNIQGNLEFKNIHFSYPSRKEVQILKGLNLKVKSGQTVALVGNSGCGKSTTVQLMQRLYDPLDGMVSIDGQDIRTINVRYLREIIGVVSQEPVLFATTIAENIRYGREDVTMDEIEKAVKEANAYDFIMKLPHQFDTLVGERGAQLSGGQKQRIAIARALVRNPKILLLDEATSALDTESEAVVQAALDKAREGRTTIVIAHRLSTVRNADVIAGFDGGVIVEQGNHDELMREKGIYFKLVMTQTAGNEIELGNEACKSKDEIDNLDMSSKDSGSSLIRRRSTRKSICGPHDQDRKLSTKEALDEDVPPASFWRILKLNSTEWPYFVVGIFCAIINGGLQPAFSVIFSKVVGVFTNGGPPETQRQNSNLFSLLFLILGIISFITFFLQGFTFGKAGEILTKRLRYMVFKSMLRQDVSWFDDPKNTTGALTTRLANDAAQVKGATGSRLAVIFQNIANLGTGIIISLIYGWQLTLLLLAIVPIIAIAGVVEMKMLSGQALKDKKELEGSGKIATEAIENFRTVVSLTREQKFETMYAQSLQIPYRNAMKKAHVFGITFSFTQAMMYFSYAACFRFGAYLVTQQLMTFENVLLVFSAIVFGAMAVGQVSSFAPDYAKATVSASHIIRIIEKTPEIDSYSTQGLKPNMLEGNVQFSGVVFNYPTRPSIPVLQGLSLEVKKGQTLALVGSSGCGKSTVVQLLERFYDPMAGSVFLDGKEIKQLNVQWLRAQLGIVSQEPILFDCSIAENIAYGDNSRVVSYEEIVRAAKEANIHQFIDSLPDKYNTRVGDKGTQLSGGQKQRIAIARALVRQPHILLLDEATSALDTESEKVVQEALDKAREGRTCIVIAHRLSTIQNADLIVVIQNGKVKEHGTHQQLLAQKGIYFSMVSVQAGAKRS
Chain of mouse Mdr1b (P06795 whole entry): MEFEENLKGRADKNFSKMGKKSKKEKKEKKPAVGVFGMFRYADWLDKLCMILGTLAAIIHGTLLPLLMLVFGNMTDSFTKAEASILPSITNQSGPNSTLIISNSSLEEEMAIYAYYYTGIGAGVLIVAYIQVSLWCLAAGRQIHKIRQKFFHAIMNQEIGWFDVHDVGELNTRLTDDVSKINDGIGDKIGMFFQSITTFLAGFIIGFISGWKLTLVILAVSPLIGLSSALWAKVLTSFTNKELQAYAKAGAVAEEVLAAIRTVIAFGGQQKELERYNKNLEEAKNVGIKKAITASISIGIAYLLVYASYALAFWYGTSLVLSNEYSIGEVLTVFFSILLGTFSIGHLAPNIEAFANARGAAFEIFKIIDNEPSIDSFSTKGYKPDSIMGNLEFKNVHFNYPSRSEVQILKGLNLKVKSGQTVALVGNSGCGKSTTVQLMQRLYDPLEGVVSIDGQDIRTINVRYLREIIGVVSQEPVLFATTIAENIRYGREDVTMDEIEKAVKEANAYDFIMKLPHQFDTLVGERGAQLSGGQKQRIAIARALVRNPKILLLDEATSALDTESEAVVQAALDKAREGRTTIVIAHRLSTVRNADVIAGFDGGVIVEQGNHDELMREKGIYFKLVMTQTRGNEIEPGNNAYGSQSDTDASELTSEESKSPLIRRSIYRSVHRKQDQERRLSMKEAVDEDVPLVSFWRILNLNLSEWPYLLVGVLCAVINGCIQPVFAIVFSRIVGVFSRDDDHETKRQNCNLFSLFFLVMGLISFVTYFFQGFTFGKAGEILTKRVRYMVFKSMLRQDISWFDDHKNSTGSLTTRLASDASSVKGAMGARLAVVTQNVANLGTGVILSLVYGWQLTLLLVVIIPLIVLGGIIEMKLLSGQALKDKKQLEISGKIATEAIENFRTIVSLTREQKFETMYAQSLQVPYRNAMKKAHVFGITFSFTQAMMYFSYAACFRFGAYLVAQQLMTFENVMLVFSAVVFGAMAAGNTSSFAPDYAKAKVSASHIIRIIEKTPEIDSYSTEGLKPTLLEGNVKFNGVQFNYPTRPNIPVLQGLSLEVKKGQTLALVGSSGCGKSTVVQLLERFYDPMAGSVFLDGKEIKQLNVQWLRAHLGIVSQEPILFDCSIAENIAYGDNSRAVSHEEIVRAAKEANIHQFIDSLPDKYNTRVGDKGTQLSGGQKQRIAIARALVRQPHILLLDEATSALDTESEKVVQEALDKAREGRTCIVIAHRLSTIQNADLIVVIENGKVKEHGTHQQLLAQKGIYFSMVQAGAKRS

cyanocobalamin
Papp [1]: < 1 ×10⁻⁶ cm/s
permeability across the lung [2]: high permeability

CC(C)(C)NCC(O)c1cc(O)cc(O)c1 (stereo not drawn) [terbutaline]
Papp [1]: < 1 ×10⁻⁶ cm/s
permeability across the lung [2]: high permeability

O=C(O)c1cc(=O)c2c(OCC(O)COc3cccc4oc(C(=O)O)cc(=O)c34)cccc2o1 [cromolyn]
Papp [1]: < 1 ×10⁻⁶ cm/s
permeability across the lung [2]: high permeability

C[C@H]1O[C@@H](O[C@H]2[C@@H](O)C[C@H](O[C@H]3[C@@H](O)C[C@H](O[C@H]4CC[C@@]5(C)[C@H](CC[C@@H]6[C@@H]5C[C@@H](O)[C@]5(C)[C@@H](C7=CC(=O)OC7)CC[C@]65O)C4)O[C@@H]3C)O[C@@H]2C)C[C@H](O)[C@@H]1O [Digoxin, digoxin]
Vmax [3]: 26.7 µM/min
LogK^IAM [4]: 0.92
Vmax [5]: 44.1 µM/min
Vmax [6, 16]: 0 µM/min
lung levels 1 hr post-instillation, wild-type mice ([7]; intra-nasal 976 ng, Mdr1a/1b +/+): 1.57 % of the nominal instilled dos
lung levels 1 hr post-instillation, knockout mice ([7]; intra-nasal 976 ng, Mdr1a/1b -/-): 0.94 % of the nominal instilled dos
lung levels after 1 h post-instillation ([7]; intra-nasal, WT and KO mice): undetectable
Mdr1a/1b (+/+) ‘F’ estimate by model fit [95% CI) ([8]; male, mouse, 50 μM): 44.0 [37.2 to 50.8]
Mdr1a/1b (-/-) ‘F’ estimate by model fit [95% CI) ([8]; male, mouse, 50 μM): 49.8 [38.4 to 61.3]
Mdr1a/1b (+/+) % Deposited Dose absorbed ([8]; male, mouse, 30 min, 50 μM): 40.1%
Mdr1a/1b (-/-) % Deposited Dose absorbed ([8]; male, mouse, 30 min, 50 μM): 41.8%
effect of P-gp inhibition (GF120918) upon pulmonary absorption [9]: remained unaffected
effect of co-administered GF120918 upon pulmonary absorption [10]: no effect
Vmax [11]: 19.7 µM/min
MLV Partitioning [12]: 0.30
Mdr1a/1b (−/−) Permeability coefficient [13]: 20.94 ± 2.94 cm/s (x10^−6)
Mdr1a/1b (+/+) Permeability coefficient [13]: 6.04 ± 1.46 cm/s (x10^−6)

inulin
absorbed from the lung [14]: 17 % of administered dose
absorbed from the small intestine [14]: < 2%

CN(C)C(=O)C(CCN1CCC(O)(c2ccc(Cl)cc2)CC1)(c1ccccc1)c1ccccc1 [loperamide]
effect of P-gp inhibition (GF120918) upon pulmonary absorption [9]: affected

COC(=O)c1ccccc1-c1c2ccc(=N)cc-2oc2cc(N)ccc12.Cl [Rh-123, rhodamine-123]
Km [3]: 6 µM
Vmax [3]: 35.2 µM/min
LogK^IAM [4]: 1.30
Km [5]: 2.2 µM
Vmax [5]: 29.7 µM/min
Km [6, 16]: 110 µM
Vmax [6, 16]: 18.5 µM/min
interaction with Bcrp (ATP turnover) ([6]; mouse Bcrp membrane model): showed evidence of interactions with Bcrp
t^1/2 for the initial decline of lung clearance, KO ([7]; mouse, in vivo): 107 min
t^1/2 for the initial decline of lung clearance, WT ([7]; mouse, in vivo): 136 min
t^1/2 terminal decline phase of lung clearance ([7]; mouse, in vivo): 500 min
Mdr1a/1b (+/+) AUC(0-30) [8]: 376 %.min
Mdr1a/1b (+/+) ‘F’ estimate by model fit [95% CI) [8]: 23.5 [19.9 to 27.1]
Mdr1a/1b (-/-) AUC(0-30) [8]: 712 %.min
Mdr1a/1b (-/-) ‘F’ estimate by model fit [95% CI) [8]: 30.6 [27.6 to 33.5]
Group (impact of Mdr1a/1b knockout on IPML absorption) ([8]; categorisation from IPML outcomes): GROUP B
Mdr1a/1b (-/-) % Deposited Dose absorbed [8, 17]: 33.2%
Ratio AUCs (-/-) : (+/+) ([8]; mouse): 1.89
Mdr1a/1b (+/+) % Deposited Dose absorbed [8, 18]: 20.7%
effect of P-gp inhibition (GF120918) upon pulmonary absorption [9]: increased
effect of co-administered GF120918 upon pulmonary absorption [10]: significantly increased
Km [11]: 2.2 µM
Vmax [11]: 36.3 µM/min
MLV Partitioning [12]: 0.82
Mdr1a/1b (−/−) Permeability coefficient [13]: 22.55 ± 2.24 cm/s (x10^−6)
Ratio Permeability (−/−): (+/+) ([13]; intestinal Papp KO:WT): 2.49
Mdr1a/1b (+/+) Permeability coefficient [13]: 9.06 ± 1.81 cm/s (x10^−6)

CC[C@@]1([C@@H]2O[C@@H]([C@H]3O[C@@](O)(CO)[C@H](C)C[C@@H]3C)C[C@@H]2C)CC[C@H]([C@]2(C)CC[C@]3(C[C@H](O)[C@@H](C)[C@@H]([C@@H](C)[C@@H](OC)[C@H](C)C(=O)O)O3)O2)O1 [Monensin, monensin]
Mdr1a/1b (−/−) Permeability coefficient [15]: 19.06 ± 2.41 cm/s (x10^−6)
Vmax [3]: 27.6 µM/min
LogK^IAM [4]: 1.32
Vmax [5]: 42.3 µM/min
Vmax [6, 16]: 0 µM/min
Group (impact of Mdr1a/1b knockout on IPML absorption) [8]: GROUP A
Mdr1a/1b (-/-) AUC(0-30) ([8]; knockout IPML, % deposited dose absorbed vs time in perfusate): 722 %.min
Mdr1a/1b (-/-) % Deposited Dose absorbed [8, 17]: 38.9%
Mdr1a/1b (+/+) ‘F’ estimate by model fit [95% CI) ([8]; male, mouse): 35.8 [28.0 to 43.6]
Mdr1a/1b (-/-) ‘F’ estimate by model fit [95% CI) ([8]; male, mouse): 33.7 [27.7 to 39.6]
Mdr1a/1b (+/+) % Deposited Dose absorbed [8, 18]: 36.5%
MLV Partitioning [12]: 0.68

OC[C@@H](O)[C@@H](O)[C@H](O)[C@H](O)CO [mannitol]
Mdr1a/1b (+/+) % Deposited Dose absorbed ([8]; male, FVB/B6 Mdr1a/1b(+/+) wild-type, mouse, 30 min, 50 μM): 44.3 ± 9.4%
Mdr1a/1b (-/-) % Deposited Dose absorbed ([8]; male, FVB/B6 Mdr1a/1b(−/−) knockout, mouse, 30 min, 50 μM): 43.2 ± 10.2%
absorbed from the lung [14]: 50 % of administered dose
absorbed from the small intestine [14]: < 2%
